Source: ChEMBL document CHEMBL1133783, “Diastereoselective synthesis, activity and chiral stability of cyclic alkoxyketone inhibitors of cathepsin K” (Bioorg Med Chem Lett, 2001)

Molecular target: T1, Cathepsin K (Homo sapiens, UniProt P43235)
T1 sequence (P43235 whole entry): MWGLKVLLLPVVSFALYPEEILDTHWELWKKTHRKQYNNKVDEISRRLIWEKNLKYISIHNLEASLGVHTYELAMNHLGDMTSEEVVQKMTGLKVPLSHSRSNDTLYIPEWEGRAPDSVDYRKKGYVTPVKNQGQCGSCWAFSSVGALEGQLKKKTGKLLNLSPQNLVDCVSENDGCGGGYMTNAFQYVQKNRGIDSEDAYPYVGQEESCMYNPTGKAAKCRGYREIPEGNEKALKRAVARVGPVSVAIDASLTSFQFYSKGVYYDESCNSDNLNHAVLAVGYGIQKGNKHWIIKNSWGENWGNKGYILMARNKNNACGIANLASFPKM
Assay: Inhibitory activity was evaluated against cathepsin K

Ki	SMILES
770 nM	COc1ccc(CC(=O)N[C@@H](CC(C)C)C(=O)NC2CCOCC2=O)cc1OC (some centres not stated)

Molecular target: T1, Cathepsin K
Assay: Inhibition of cathepsin K

SMILES	Ki
COc1ccc(CC(=O)N[C@@H](CC(C)C)C(=O)NC2CCOCC2=O)cc1OC (some centres not stated)	10 nM
CC(C)C[C@H](NC(=O)c1ccc2ccccc2c1)C(=O)NC1CCOCC1=O (single isomer, unassigned; diastereomer 1)	32 nM
CC(C)C[C@H](NC(=O)c1cc2ccccc2s1)C(=O)NC1CCOCC1=O (single isomer, unassigned; diastereomer 1)	8 nM
CC(C)C[C@H](NC(=O)c1ccc2ccccc2c1)C(=O)NC1CCOCC1=O (single isomer, unassigned; diastereomer 2)	380 nM
CC(C)C[C@H](NC(=O)c1cc2ccccc2s1)C(=O)NC1CCOCC1=O (single isomer, unassigned; diastereomer 2)	70 nM

The next lines start with the values.

Ki	SMILES
15 nM	CC(C)C[C@H](NC(=O)c1ccc2ccccc2n1)C(=O)N[C@H]1COCC1=O
14 nM	CC(C)C[C@H](NC(=O)c1ccc2ccccc2c1)C(=O)N[C@H]1COCC1=O
470 nM	CC(C)C[C@@H](NC(=O)c1ccc2ccccc2c1)C(=O)N[C@@H]1COCC1=O
7 nM	CC(C)C[C@H](NC(=O)c1cc2ccccc2s1)C(=O)N[C@H]1COCC1=O
590 nM	CC(C)C[C@@H](NC(=O)c1ccc2ccccc2n1)C(=O)N[C@@H]1COCC1=O
68 nM	CC(C)C[C@@H](NC(=O)c1cc2ccccc2s1)C(=O)N[C@@H]1COCC1=O
